Assay results reported in patent US20240217978A1 (CHONG KUN DANG PHARMACEUTICAL CORP., priority 2021, published 2024).

Target: human adenosine A2a receptor (Homo sapiens (Human), UniProt P29274)
Assay: A2a receptor binding affinity, [3H]-NECA radioligand binding test
Conditions: [3H]-NECA 37 nM; membrane from HEK-293 cells transfected with human adenosine A2a receptor
How it was run: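 IC50 values (μM) come from displacement of [3H]-NECA, used at 37 nM final, on human A2a receptor membranes from transfected HEK-293 cells. Incubation lasted one hour at room temperature in Tris/MgCl2/EDTA buffer, pH 7.4; filter-bound radioactivity was counted by scintillation.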

Chain of human adenosine A2a receptor (P29274 whole entry): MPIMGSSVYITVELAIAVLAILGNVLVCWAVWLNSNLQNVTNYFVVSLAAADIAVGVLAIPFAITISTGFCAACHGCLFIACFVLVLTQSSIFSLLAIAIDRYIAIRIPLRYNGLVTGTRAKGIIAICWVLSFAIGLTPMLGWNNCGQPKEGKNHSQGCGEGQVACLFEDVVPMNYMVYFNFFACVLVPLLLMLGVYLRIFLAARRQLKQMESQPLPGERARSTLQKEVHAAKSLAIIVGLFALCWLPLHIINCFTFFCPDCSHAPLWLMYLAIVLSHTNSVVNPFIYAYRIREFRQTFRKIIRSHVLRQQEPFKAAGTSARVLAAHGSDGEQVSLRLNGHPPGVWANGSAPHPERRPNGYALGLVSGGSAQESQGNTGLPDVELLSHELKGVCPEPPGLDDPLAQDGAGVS

| IC50 [nM] | Structure (SMILES) |
| --- | --- |
| 2 | CCCCN1CCN(C(=O)[C@@H]2CCCN2c2nc(N)n3nc(-c4ccco4)nc3n2)CC1=O [Example 247, 4-((7-amino-2-(furan-2-yl)-[1,2,4]triazolo[1,5-a][1,3,5]triazin-5-yl)-L-prolyl)-1-butylpiperazin-2-one] |
| 11 | Cc1ccc(-c2nc3nc(N4CC[C@H]4C(=O)N4CCN(C(=O)c5ccccc5)CC4)nc(N)n3n2)o1 [Example 207, (S)-(1-(7-amino-2-(5-methylfuran-2-yl)-[1,2,4]triazolo[1,5-a][1,3,5]triazin-5-yl)azetidin-2-yl)(4-benzoylpiperazin-1-yl)methanone] |
| 8 | CCCCN1CCN(C(=O)[C@@H]2CCCN2c2nc(N)n3nc(-c4ccco4)nc3n2)CC1 [Example 47, (S)-(1-(7-amino-2-(furan-2-yl)-[1,2,4]triazolo[1,5-a][1,3,5]triazin-5-yl)pyrrolidin-2-yl)(4-butylpiperazin-1-yl) methanone] |
| 18 | Nc1nc(N[C@H](C(=O)N2CCN(CC(F)(F)F)CC2)C2CC2)nc2nc(-c3ccco3)nn12 [Example 216, (S)-2-((7-amino-2-(furan-2-yl)-[1,2,4]triazolo[1,5-a][1,3,5]triazin-5-yl)amino)-2-cyclopropyl-1-(4-(2,2,2-trifluoroethyl)piperazin-1-yl)ethan-1-one] |
| 25 | CCCCN1CCC(C2CCN(C(=O)[C@@H]3CCN3c3nc(N)n4nc(-c5ccco5)nc4n3)CC2)CC1 [Example 328, (S)-(1-(7-amino-2-(furan-2-yl)-[1,2,4]triazolo[1,5-a][1,3,5]triazin-5-yl)azetidin-2-yl)(1′-butyl-[4,4′-bipiperidin]-1-yl)methanone] |
| 6 | CCCCN1CCN(C(=O)[C@H](Cc2ccccc2)Nc2nc(N)n3nc(-c4ccco4)nc3n2)CC1 [Example 191, (S)-2-((7-amino-2-(furan-2-yl)-[1,2,4]triazolo[1,5-a][1,3,5]triazin-5-yl)amino)-1-(4-butylpiperazin-1-yl)-3-phenylpropan-1-one] |
| 29 | COC[C@H](Nc1nc(N)n2nc(-c3ccco3)nc2n1)C(=O)N1CCN(CC(F)F)CC1 [Example 396, (S)-2-((7-amino-2-(furan-2-yl)-[1,2,4]triazolo[1,5-a][1,3,5]triazin-5-yl)amino)-1-(4-(2,2-difluoroethyl)piperazin-1-yl)-3-methoxypropan-1-one] |
| 1 | Nc1nc(N2CCC[C@H]2C(=O)N2CCC(C3CCN(CC(F)(F)F)CC3)CC2)nc2nc(-c3ccco3)nn12 [Example 206, (S)-(1-(7-amino-2-(furan-2-yl)-[1,2,4]triazolo[1,5-a][1,3,5]triazin-5-yl)pyrrolidin-2-yl)(1′-(2,2,2-trifluoroethyl)-[4,4′-bipiperidin]-1-yl)methanone] |
| 9 | Nc1nc(N2CCC[C@H]2C(=O)N2CCN(C(=O)C3(C(F)(F)F)CCC3)CC2)nc2nc(-c3ccco3)nn12 [Example 75] |
| 4 | Nc1nc(N[C@H](C(=O)N2CCN(c3ccc(F)cc3F)CC2)C2CC2)nc2nc(-c3ccco3)nn12 [Example 168, (S)-2-((7-amino-2-(furan-2-yl)-[1,2,4]triazolo[1,5-a][1,3,5]triazin-5-yl)amino)-2-cyclopropyl-1-(4-(2,4-difluorophenyl)piperazin-1-yl)ethan-1-one] |
| 28 | Nc1nc(N2CCC[C@H]2C(=O)N2CCN(CC(F)F)CC23CC3)nc2nc(-c3ccco3)nn12 [Example 341, (S)-(1-(7-amino-2-(furan-2-yl)-[1,2,4]triazolo[1,5-a][1,3,5]triazin-5-yl)pyrrolidin-2-yl)(7-(2,2-difluoroethyl)-4,7-diazaspiro[2.5]octan-4-yl)methanone] |
| 10 | Nc1nc(N2CCC[C@H]2C(=O)N2CCN(CC(F)(F)C(F)F)CC2)nc2oc(-c3ccco3)nc12 [Example 271, (S)-(1-(7-amino-2-(furan-2-yl)oxazolo[5,4-d]pyrimidin-5-yl)pyrrolidin-2-yl)(4-(2,2,3,3-tetrafluoropropyl)piperazin-1-yl)methanone] |
| 19 | COc1ccccc1N1CCN(C(=O)[C@@H]2CCCN2c2nc(N)n3nc(-c4ccco4)nc3n2)CC1 [Example 122, (S)-(1-(7-amino-2-(furan-2-yl)-[1,2,4]triazolo[1,5-a][1,3,5]triazin-5-yl)pyrrolidin-2-yl)(4-(2-methoxyphenyl)piperazin-1-yl)methanone] |
| 14 | CC(C)[C@H](Nc1nc(N)n2nc(-c3ccco3)nc2n1)C(=O)N1CCN(CCC(F)(F)F)CC1 [Example 367, (S)-2-((7-amino-2-(furan-2-yl)-[1,2,4]triazolo[1,5-a][1,3,5]triazin-5-yl)amino)-3-methyl-1-(4-(3,3,3-trifluoropropyl)piperazin-1-yl)butan-1-one] |
| 9 | COCCN1CCN(C(=O)[C@@H]2CCN2c2nc(N)n3nc(-c4ccco4)nc3n2)CC1 [Example 107, (S)-(1-(7-amino-2-(furan-2-yl)-[1,2,4]triazolo[1,5-a][1,3,5]triazin-5-yl)azetidin-2-yl)(4-(2-methoxyethyl)piperazin-1-yl) methanone] |
| 12.2 | C[C@H](Nc1nc(N)n2nc(-c3ccco3)nc2n1)C(=O)N1CCN(CC(C)(C)O)CC1 [Example 349, (S)-2-((7-amino-2-(furan-2-yl)-[1,2,4]triazolo[1,5-a][1,3,5]triazin-5-yl)amino)-1-(4-(2-hydroxy-2-methylpropyl)piperazin-1-yl)propan-1-one] |
| 6.02 | Nc1nc(NCC(=O)N2CCN(Cc3ccc(F)cc3F)CC2)nc2nc(-c3ccco3)nn12 [Example 15, 2-((7-amino-2-(furan-2-yl)-[1,2,4]triazolo[1,5-a][1,3,5]triazin-5-yl)amino)-1-(4-(2,4-difluorobenzyl)piperazin-1-yl)ethan-1-one] |
| 1 | COc1cccc(C(=O)N2CCN(C(=O)[C@@H]3CCCN3c3nc(N)n4nc(-c5ccco5)nc4n3)CC2)c1 [Example 63] |
| 7 | COCCN1CCN(C(=O)[C@@H]2CCCN2c2nc(N)n3nc(-c4ccc(C)o4)nc3n2)CC1 [Example 91, (S)-(1-(7-amino-2-(5-methylfuran-2-yl)-[1,2,4]triazolo[1,5-a][1,3,5]triazin-5-yl)pyrrolidin-2-yl)(4-(2-methoxyethyl)piperazin-1-yl)methanone] |
| 5 | Nc1nc(N2CCC[C@H]2C(=O)N2CCN(CC3(C(F)(F)F)CCC3)CC2)nc2nc(-c3ccco3)nn12 [Example 284, (S)-(1-(7-amino-2-(furan-2-yl)-[1,2,4]triazolo[1,5-a][1,3,5]triazin-5-yl)pyrrolidin-2-yl)(4-((1-(trifluoromethyl)cyclobutyl)methyl)piperazin-1-yl)methanone] |
| 6 | CC(C)(O)CN1CCN(C(=O)[C@@H]2CCCN2c2nc(N)n3nc(-c4ccco4)nc3n2)CC1 [Example 302, (S)-(1-(7-amino-2-(furan-2-yl)-[1,2,4]triazolo[1,5-a][1,3,5]triazin-5-yl)pyrrolidin-2-yl)(4-(2-hydroxy-2-methylpropyl)piperazin-1-yl)methanone] |
| 10 | CC(C)(C)C1CCC(N2CCN(C(=O)[C@@H]3CCCN3c3nc(N)n4nc(-c5ccco5)nc4n3)CC2)CC1 (stereo partly drawn) [Example 154, (S)-(1-(7-amino-2-(furan-2-yl)-[1,2,4]triazolo[1,5-a][1,3,5]triazin-5-yl)pyrrolidin-2-yl)(4-(4-(tert-butyl)cyclohexyl)piperazin-1-yl)methanone] |
